We go through ten compounds from BindingDB's records for doi:10.1016/j.bmc.2018.11.002 (2018).

Experiment [1] is described as follows: Inhibition of mouse GAT3 expressed in HEK293 cells assessed as reduction in [3H]GABA uptake preincubated for 25 mins followed by [3H]GABA addition and measured after 4 mins by liquid scintillation counting method.
Experiment [2] in a line: Inhibition of mouse GAT2 expressed in HEK293 cells assessed as reduction in [3H]GABA uptake preincubated for 25 mins followed by [3H]GABA addition and measured after 4 mins by liquid scintillation counting method.

In general, pIC50 refers to −log10 of the IC50, conventionally taken in molar units.

pIC50: −log10 of the molar value.

Regarding `COc1ccc(C(/C=C/CN2CCCC(C(=O)O)C2)(c2ccc(OC)cc2)c2ccc3c(c2)OCO3)cc1` (stereo not given), in experiment [1], the pIC50 is 4.99. Consider `COc1ccc(C(C/C=C/CN2CCCC(C(=O)O)C2)(c2ccc(OC)cc2)c2ccc(OC)cc2)cc1` (stereo not given), for which the pIC50 in experiment [1] is 4.07. Same read-out and setting: with `COc1ccc(C(/C=C/CN2CCCC(C(=O)O)C2)(c2ccc(OC)cc2)c2ccsc2)cc1` (stereo not given) the figure was 4.37. For the compound `COc1ccc(C(/C=C/CN2CCCC(C(=O)O)C2)(c2ccc(OC)cc2)c2ccc3sccc3c2)cc1` (stereo not given), the pIC50 in experiment [1] was 4.70; in experiment [2] it was 4.60. Turning to `COc1ccc(C(/C=C/CN2CCC[C@H](C(=O)O)C2)(c2ccc(OC)cc2)c2ccc3sccc3c2)cc1`, the pIC50 in experiment [2] is 4.63.

On to `O=C(O)C1CCCN(C/C=C/C(c2ccc3occc3c2)(c2ccc3occc3c2)c2ccc3occc3c2)C1` (stereo not given), for which the pIC50 in experiment [1] is 5.26; in experiment [2], 5.02. Regarding `O=C(O)C1CCCN(C/C=C/C(c2ccc3c(c2)OCO3)(c2ccc3c(c2)OCO3)c2ccc3c(c2)OCO3)C1` (stereo not given), the pIC50 is 4.61 in experiment [1] and 4.05 in experiment [2].

With `O=C(O)C1CCCN(C/C=C/C(c2ccc3sccc3c2)(c2ccc3sccc3c2)c2ccc3sccc3c2)C1` (stereo not given), the pIC50 in experiment [1] is 4.28; in experiment [2], 4.47. On to `COc1ccc(C(/C=C/CN2CCCC(C(=O)O)C2)c2ccc(OC)cc2)cc1` (stereo not given), for which the pIC50 in experiment [1] was 4.27.

On to `Cc1ccc(C(/C=C/CN2CCCC(C(=O)O)C2)(c2ccc(C)cc2)c2ccc(C)cc2)cc1` (stereo not given), for which the pIC50 was 4.80 in experiment [1] and 4.85 in experiment [2].
